# Test system: MMP2 protein in PC-3 cells
# Test: Western blot of MMP2 in PC-3
# Type: cell-based, human
# Conditions: 1 μM, 24 h
# Excerpt: Cells were lysed in Laemmli buffer; subsequently, the proteins were resolved by sodium dodecyl sulfate-polyacrylamide gel electrophoresis and transferred to a 0.45-μm nitrocellulose membrane (Bio-Rad Laboratories, Hercules, CA). The following primary antibodies were used for immunoblotting: α-E-cadherin (BD Transduction Laboratories, Franklin Lakes, NJ), α-MMP2 (Abcam), α-DNMT3a (Santa Cruz Biotechnologies, Dallas, TX), and α-GAPDH (Millipore Corp., Bedford, MA), used as a loading control. The immune complexes were detected with horseradish peroxidase-conjugated species-specific secondary antiserum (Bio-Rad Laboratories, Milan, Italy) then by enhanced chemiluminescence reaction (Bio-Rad Laboratories, Milan, Italy). Densitometric analysis of protein expression was performed by using the Fiji ImageJ image processing package.
# Fig. 8 Effects of MC3353 on E-cadherin and MMP2 protein expression levels in PC-3 cancer cells. Cells were treated with vehicle (DMSO) used as control (CTR) or MC3353 for 24 h. a E-cadherin and MMP2 protein detection by western blot. GAPDH was used as a loading control. Blots are representative of three independent experiments. b Densitometric analysis of E-cadherin and MMP2 protein expression. Significance is represented as *p < 0.05 related to the control groups. Data were obtained from three independent experiments and expressed as mean ± SEM
smiles,measurement,value
"O=C(Nc1ccc(NC(=O)c2ccc(Nc3ccnc4ccccc34)cc2)cc1)OCc1ccccc1 [MC3353, Benzyl (4-(4-(quinolin-4-ylamino)benzamido)phenyl)carbamate]","MMP2 protein level (western blot, densitometry), PC-3",reduced MMP2 protein levels

# — PMC6501426 (Clinical Epigenetics, 2019)
